In patent US20140080869A1, “Methods for Treating HCV” (priority 2012, published 2014):
Like-named read-outs stand apart in the source and are kept apart here.

Assays:
[1] = system: HCV replicon with NS5A genotype 2a T24A variant; test: Transient chimeric replicon assay, genotype 2a T24A; type: cell-based
From the text: (§1) Transiently replicating chimeric replicons containing NS5A from genotype 2-6 wild types or replicons containing variants within NS5A were constructed in the 1b-Con1 background. These replicons also contained a firefly luciferase reporter gene. Variants were introduced by site-directed mutagenesis using the Change-IT Multiple Mutation Site Directed Mutagenesis Kit (USB). After the mutagenesis was confirmed by sequence analysis, the plasmids were linearized with ScaI restriction enzyme. The TranscriptAid T7 High Yield Transcription Kit (Fermentas) was used to transcribe the HCV subgenomic RNA from the plasmids. The RNA was transfected via electroporation into a Huh-7 derived cell line as described (see Middleton et al. and Tripathi et al., supra) except that 3×10^6 cells were electroporated with 15 μg of template RNA and the 96 well plate was seeded with 7.5×10^3 cells per well. Four hours post-transfection, the wells from one plate were harvested for luciferase measurement. […] Luciferin solution (50 μl, Promega) was added to each well, and luciferase activity was measured with a Victor II luminometer (Perkin-Elmer). The percent inhibition of HCV RNA replication was calculated for each compound concentration and the EC50 value was calculated using nonlinear regression curve fitting to the 4-parameter logistic equation and GraphPad Prism 4 software.

[2] = system: HCV replicon with NS5A from genotype 6a; test: microbe, parasite or virus in culture; settings: Hepatitis C virus, read-out: Mean EC50 ± Std. Dev.
[3] = system: HCV replicon with NS5A from genotype 3a; test: microbe, parasite or virus in culture; settings: Hepatitis C virus, read-out: Mean EC50 ± Std. Dev.
[4] = system: HCV replicon with NS5A from genotype 3a; settings: read-out: Mean EC50 ± Std. Dev.
[5] = system: HCV genotype 1b-Con1 stable subgenomic replicon; settings: read-out: Mean EC50 ± Std. Dev.
[6] = system: HCV replicon with NS5A from genotype 2a; settings: read-out: Mean EC50 ± Std. Dev.
[7] = system: HCV replicon with NS5A genotype 3a M28T variant; test: Transient chimeric replicon assay, genotype 3a M28T; type: cell-based
From the text: as §1

[8] = system: HCV replicon with NS5A genotype 2b wild type; test: Transient chimeric replicon assay, genotype 2b WT; type: cell-based; settings: Hepatitis C virus
From the text: as §1

[9] = system: HCV replicon with NS5A genotype 5a L31F variant; test: Transient chimeric replicon assay, genotype 5a L31F; type: cell-based
From the text: as §1

[10] = system: HCV replicon with NS5A genotype 6a T58N variant; test: Transient chimeric replicon assay, genotype 6a T58N; type: cell-based
From the text: as §1

[11] = system: HCV replicon with NS5A from genotype 2b; settings: read-out: Mean EC50 ± Std. Dev.
[12] = system: HCV replicon with NS5A genotype 2b L31V variant; test: Transient chimeric replicon assay, genotype 2b L31V; type: cell-based
From the text: as §1

[13] = system: HCV replicon with NS5A genotype 5a L31V variant; test: Transient chimeric replicon assay, genotype 5a L31V; type: cell-based; settings: Hepatitis C virus
From the text: as §1

[14] = system: HCV genotype 1b-Con1 stable subgenomic replicon; test: microbe, parasite or virus in culture; settings: Hepatitis C virus, read-out: Mean EC50 ± Std. Dev.
[15] = system: HCV replicon with NS5A from genotype 6a; settings: read-out: Mean EC50 ± Std. Dev.
[16] = system: HCV replicon with NS5A genotype 3a wild type; test: microbe, parasite or virus in culture; type: cell-based; settings: Hepatitis C virus, read-out: Average EC50
From the text: (§2) Transiently replicating chimeric replicons containing NS5A from genotype 2-6 wild types or replicons containing variants within NS5A were constructed in the 1b-Con1 background. These replicons also contained a firefly luciferase reporter gene. Variants were introduced by site-directed mutagenesis using the Change-IT Multiple Mutation Site Directed Mutagenesis Kit (USB). After the mutagenesis was confirmed by sequence analysis, the plasmids were linearized with ScaI restriction enzyme. The TranscriptAid T7 High Yield Transcription Kit (Fermentas) was used to transcribe the HCV subgenomic RNA from the plasmids. The RNA was transfected via electroporation into a Huh-7 derived cell line as described (see Middleton et al. and Tripathi et al., supra) except that 3×10^6 cells were electroporated with 15 μg of template RNA and the 96 well plate was seeded with 7.5×10^3 cells per well. Four hours post-transfection, the wells from one plate were harvested for luciferase measurement. This plate provided a measure of the amount of translatable input RNA, and therefore transfection efficiency. To the wells of the remaining plates, a half-log dilution series of the test compound in culture medium (0.5% DMSO final concentration) was added, and plates were incubated at 37° C., 5% CO2 in a humidified incubator for 4 days. After this period, the media was removed and the plates were washed with 100 μl phosphate-buffered saline per well. Luciferin solution (50 μl, Promega) was added to each well, and luciferase activity was measured with a Victor II luminometer (Perkin-Elmer). The percent inhibition of HCV RNA replication was calculated for each compound concentration and the EC50 value was calculated using nonlinear regression curve fitting to the 4-parameter logistic equation and GraphPad Prism 4 software.

[17] = system: HCV replicon with NS5A genotype 2a wild type; test: microbe, parasite or virus in culture; type: cell-based; settings: Hepatitis C virus, read-out: Average EC50
From the text: as §2

[18] = system: HCV replicon with NS5A genotype 6a wild type; test: microbe, parasite or virus in culture; type: cell-based; settings: Hepatitis C virus, read-out: Average EC50
From the text: as §2

[19] = system: HCV replicon with NS5A from genotype 2b; test: microbe, parasite or virus in culture; settings: Hepatitis C virus, read-out: Mean EC50 ± Std. Dev.
[20] = system: HCV replicon with NS5A genotype 6a T58A variant; test: Transient chimeric replicon assay, genotype 6a T58A; type: cell-based
From the text: as §1

[21] = system: HCV replicon with NS5A genotype 5a wild type; test: Transient chimeric replicon assay, genotype 5a WT; type: cell-based; settings: Hepatitis C virus
From the text: as §1

[22] = system: HCV replicon with NS5A from genotype 2a; test: microbe, parasite or virus in culture; settings: Hepatitis C virus, read-out: Mean EC50 ± Std. Dev.
[23] = system: HCV replicon with NS5A genotype 3a Y93H variant; test: Transient chimeric replicon assay, genotype 3a Y93H; type: cell-based; settings: Hepatitis C virus
From the text: as §1

COC(=O)N[C@H](C(=O)N1CCC[C@H]1c1nc2cc([C@H]3CC[C@H](c4ccc5[nH]c([C@@H]6CCCN6C(=O)[C@@H](NC(=O)OC)C(C)C)nc5c4)N3c3cc(F)c(N4CCC(c5ccccc5)CC4)c(F)c3)ccc2[nH]1)C(C)C [Compound 1, methyl {(2S)-1-[(2S)-2-{5-[(2R,5R)-1-[3,5-difluoro-4-(4-phenylpiperidin-1-yl)phenyl]-5-{2-[(2S)-1-{(2S)-2-[(methoxycarbonyl)amino]-3-methylbutanoyl}pyrrolidin-2-yl]-1H-benzimidazol-5-yl}pyrrolidin-2-yl]-1H-benzimidazol-2-yl}pyrrolidin-1-yl]-3-methyl-1-oxobutan-2-yl}carbamate]
EC50 [1]: 3 pM
EC50 ([1]; Hepatitis C virus): < 5 pM
EC50 [2]: < 10 pM
EC50 [3]: < 10 pM
EC50 [4]: 6.4 ± 2.8 pM
EC50 [5]: 5.1 ± 1.8 pM
EC50 [6]: 9 ± 4.6 pM
EC50 [7]: 4.6 pM
EC50 ([7]; Hepatitis C virus): < 5 pM
EC50 [8]: 1.8 pM
EC50 [9]: 3.3 pM
EC50 ([9]; Hepatitis C virus): < 5 pM
EC50 [10]: 3.2 pM
EC50 ([10]; Hepatitis C virus): < 5 pM
EC50 [11]: 6.4 ± 3.1 pM
EC50 [12]: 3 pM
EC50 ([12]; Hepatitis C virus): < 5 pM
EC50 [13]: < 5 pM
EC50 [14]: < 10 pM
EC50 [15]: 8.7 ± 5.5 pM
EC50 [16]: 2.9 pM
EC50 [17]: 3 pM
EC50 [18]: 2.4 pM
EC50 [19]: < 10 pM
EC50 [20]: 2.5 pM
EC50 ([20]; Hepatitis C virus): < 5 pM
EC50 [21]: 1.1 pM
EC50 [22]: < 10 pM
EC50 [23]: 273 pM
